# Data from US20030232862A1 (priority 2002, published 2003).
# Assays:
# HT-29 cells = test: Apoptosis and necrosis by morphology (acridine orange/ethidium bromide) in HT-29 cells; type: cell-based, human; conditions: HT-29, six days
# From the text: Apoptosis occurs naturally during normal tissue turnover and during embryonic development of organs and limbs. Apoptosis also is induced by cytotoxic T-lymphocytes and natural killer cells, by ionizing radiation and by certain chemotherapeutic drugs. Inappropriate regulation of apoptosis is thought to play an important role in many pathological conditions including cancer, AIDS, or Alzheimer's disease, etc. Compounds can be screened for induction of apoptosis using cultures of tumor cells maintained under conditions as described above. Treatment of cells with test compounds involves either pre- or post-confluent cultures and treatment for two to seven days at various concentrations. Apoptotic cells are measured in both the attached and “floating” compartments of the cultures. […]
# Reference compounds and test compounds were analyzed for their novel PDE inhibitory activity in accordance with the protocols for the assay, supra. […] Apoptotic and necrotic cell death was determined previously (Duke and Cohen, In: Current Protocols in Immunology, 3.17.1 - 3.17.16, New York, John Wiley and Sons, 1992). […]
# The apoptosis inducing activity for a series of phosphodiesterase inhibitors was determined. […] Apoptosis and necrosis were determined morphologically after acridine orange and ethidium bromide labeling in accordance with the assay described, supra. […]
# [1] = tested on: PKG activity in SW480 colon cancer cells; test: PKG activity assay in drug-treated SW480 cells; type: cell-based, human; conditions: SW480, 48 hrs, with and without added cGMP; exisulind 200-600 μM, E4021 0.1-10 μM
# From the text: The novel PKG assay of this invention involves binding to solid phase plural amino acid sequences, each of which contain at least the cGMP-binding (cGB) domain and the phosphorylation site of phosphodiesterase type 5 (“PDE5”). That sequence is known and described in the literature below. […] One way to bind the PDE5 sequences to a solid phase is to express those sequences as a fusion protein of the PDE5 sequence and one member of an amino acid binding pair, and chemically link the other member of that amino acid binding pair to a solid phase (e.g., beads). One binding pair that can be used is glutathione S-transferase (“GST”) and glutathione (“GSH”), with the GST being expressed as a fusion protein with the PDE5 sequence described above, and the GSH bound covalently to the solid phase. In this fashion, the PDE5 sequence/GST fusion protein can be bound to a solid phase simply by passing a solution containing the fusion protein over the solid phase, as described below.
# To assay a liquid sample believed to contain PKG using the PDE5-bound solid phase described above, the sample and the solid phase are mixed with phosphorylation buffer containing ^32P-γ-ATP. […]
# For each control or drug cell lysate sample to be evaluated, the reaction is started by adding phosphorylation buffer containing 10 μCi ^32P-γ-ATP solution (200 μM ATP, 4.5 mM MgCl; 5 mM KH2PO4; 5 mM K2HPO4;) to each mixture. […]
# [2] = biological target: cGMP PDE purified from human colon HT-29 cultured tumor cells (Homo sapiens, UniProt O76074); test: cGMP PDE inhibition assay; type: biochemical
smiles,measurement,setting,value
"CC1=C(CC(=O)O)c2cc(F)ccc2/C1=C\c1ccc(S(C)(=O)=O)cc1 [Exisulind, 5-fluoro-2-methyl-1-(p-methylsulfonylbenzylidene)-3-indenylacetic acid]",apoptotic and necrotic cell death,HT-29 cells,capable of causing apoptotic cell death without inducing necrosis
same,PKG activity relative to control,[1],increase in a dose-dependent manner
same,PDE Inhibition,[2]; Table 9 qualitative profile,+ +
same,inhibition at 10 µM,"[2]; read-out: % Inhibition at 10 μM (cGMP PDE), 10 μM",39%
same,IC50,[2]; read-out: IC50 for inhibition of cGMP PDE,56 µM
